# Source: patent US7897780B2, “Method for controlling phytopathogenic fungi using silylated carboxamides” (Bayer CropScience AG, priority 2004, dated 2011)
# Tested on: Venturia inaequalis
# Assay: Venturia test (apple)/protective
# Type: in vivo
# Conditions: protective spray, application rate 100 g/ha, evaluation 10 days after inoculation
# Experimental: (§1) To produce a suitable preparation of active compound, 1 part by weight of active compound is mixed with the stated amounts of solvents and emulsifier, and the concentrate is diluted with water to the desired concentration.
# To test for protective activity, young plants are sprayed with the preparation of active compound at the stated application rate. After the spray coating has dried on, the plants are inoculated with an aqueous conidia suspension of the apple scab pathogen Venturia inaequalis and then remain in an incubation cabin at about 20° C. and 100% relative atmospheric humidity for 1 day.
# The plants are then placed in a greenhouse at about 21° C. and a relative atmospheric humidity of about 90%.
# (§2) Evaluation is carried out 10 days after the inoculation. 0% means an efficacy which corresponds to that of the control, whereas an efficacy of 100% means that no infection is observed.
row,Compound,Efficacy in % [%]
1,Cn1cc(C(=O)Nc2ccsc2CC[Si](C)(C)C)c(C(F)(F)F)c1 [drawing 88],99
2,Cn1cc(C(=O)Nc2ccsc2CC[Si](C)(C)C)c(C(F)F)n1 [drawing 86],100
3,Cc1nc(C(F)F)c(C(=O)Nc2ccsc2CC[Si](C)(C)C)s1 [drawing 84],100
4,Cn1cc(C(=O)Nc2ccsc2CC[Si](C)(C)C)c(I)n1 [drawing 89],100
5,Cn1cc(C(=O)Nc2ccsc2CC[Si](C)(C)C)c(C(F)(F)F)n1 [drawing 85],100
6,Cc1nn(C)c(F)c1C(=O)Nc1ccsc1CC[Si](C)(C)C [drawing 87],100

# Tested on: Podosphaera leucotricha
# Assay: Podosphaera test (apple)/protective
# Type: in vivo
# Conditions: protective spray, application rate 100 g/ha, evaluation 10 days after inoculation
# Experimental: as §1
# (§3) To test for protective activity, young plants are sprayed with the preparation of active compound at the stated application rate. After the spray coating has dried on, the plants are inoculated with an aqueous spore suspension of the apple mildew pathogen Podosphaera leucotricha. The plants are then placed in a greenhouse at about 23° C. and a relative atmospheric humidity of about 70%.
# as §2
row,Compound,Efficacy in % [%]
1,Cn1cc(C(=O)Nc2ccsc2CC[Si](C)(C)C)c(C(F)F)n1 [drawing 75],100
2,Cn1cc(C(=O)Nc2ccsc2CC[Si](C)(C)C)c(C(F)(F)F)n1 [drawing 74],100
3,Cc1nc(C(F)F)c(C(=O)Nc2ccsc2CC[Si](C)(C)C)s1 [drawing 73],100
4,Cc1nn(C)c(F)c1C(=O)Nc1ccsc1CC[Si](C)(C)C [drawing 76],100
5,Cn1cc(C(=O)Nc2ccsc2CC[Si](C)(C)C)c(C(F)(F)F)c1 [drawing 77],99

# Tested on: Alternaria mali
# Assay: In vitro test for the ED50 determination in microorganisms
# Type: cell-based
# Conditions: 50% inhibition of fungal growth, potato dextrose medium, 20° C., 3-5 days, photometric 620 nm, tested at 0.05, 0.5, 5 and 50 ppm
# Experimental: A methanolic solution of the active compound to be tested, admixed with emulsifier PS16, is pipetted into the wells of a microtitre plate. After the solvent has evaporated, 200 μl of potato dextrose medium are added to each well. Beforehand, a suitable concentration of spores or mycelium of the fungus to be tested was added to the medium. The resulting concentrations of active compound are 0.05, 0.5, 5 and 50 ppm. The resulting concentration of the emulsifier is 300 ppm.
# The plates are then incubated on a shaker at a temperature of 20° C. for 3-5 days, until sufficient growth can be observed in the untreated control.
# Evaluation is carried out photometrically at a wavelength of 620 nm. The dose of active compound which causes 50% inhibition of fungal growth compared to the untreated control (ED50) is calculated from data measured at different concentrations.
row,Compound,ED50 value [ppm]
1,C[Si](C)(C)CCc1sccc1NC(=O)c1ccccc1C(F)(F)F,<0.05
2,C[Si](C)(C)CCc1sccc1NC(=O)c1cccnc1Cl [drawing 103],<0.05
3,Cc1nc(C(F)F)c(C(=O)Nc2ccsc2CC[Si](C)(C)C)s1 [drawing 101],<0.05
4,Cn1cc(C(=O)Nc2ccsc2CC[Si](C)(C)C)c(C(F)(F)F)c1 [drawing 104],<0.05
5,Cn1cc(C(=O)Nc2ccsc2CC[Si](C)(C)C)c(C(F)F)n1 [drawing 105],<0.05
6,Cn1cc(C(=O)Nc2ccsc2CC[Si](C)(C)C)c(C(F)(F)F)n1 [drawing 100],<0.05

# Tested on: Puccinia recondita
# Assay: Puccinia test (wheat)/protective
# Type: in vivo
# Conditions: protective spray, application rate 500 g/ha, evaluation 10 days after inoculation
# Experimental: To produce a suitable preparation of active compound, 1 part by weight of active compound is mixed with the stated amounts of solvent and emulsifier, and the concentrate is diluted with water to the desired concentration.
# To test for protective activity, young plants are sprayed with the preparation of active compound at the stated application rate. After the spray coating has dried on, the plants are sprayed with a conidia suspension of Puccinia recondita. The plants remain in an incubation cabin at 20° C. and 100% relative atmospheric humidity for 48 hours.
# The plants are then placed in a greenhouse at a temperature of about 20° C. and a relative atmospheric humidity of 80% to promote the development of rust pustules.
# as §2
row,Compound,Efficacy in % [%]
1,Cc1nn(C)c(F)c1C(=O)Nc1ccsc1CC[Si](C)(C)C [drawing 99],100
2,Cn1cc(C(=O)Nc2ccsc2CC[Si](C)(C)C)c(C(F)(F)F)n1 [drawing 97],100
3,Cc1nc(C(F)F)c(C(=O)Nc2ccsc2CC[Si](C)(C)C)s1 [drawing 96],100
4,Cn1cc(C(=O)Nc2ccsc2CC[Si](C)(C)C)c(C(F)F)n1 [drawing 98],100

# Tested on: Botrytis cinerea
# Assay: Botrytis test (bean)/protective
# Type: in vivo
# Conditions: protective spray, application rate 500 g/ha, evaluation 2 days after inoculation
# Experimental: as §1
# To test for protective activity, young plants are sprayed with the preparation of active compound at the stated application rate. After the spray coating has dried on, 2 small pieces of agar colonized by Botrytis cinerea are placed onto each leaf. The inoculated plants are placed in a dark chamber at about 20° C. and 100% atmospheric humidity.
# The size of the infected areas of the leaves is evaluated 2 days after the inoculation. 0% means an efficacy which corresponds to that of the control, whereas an efficacy of 100% means that no infection is observed.
row,Compound,Efficacy in % [%]
1,Cc1nc(C(F)F)c(C(=O)Nc2ccsc2CC[Si](C)(C)C)s1 [drawing 90],100
2,Cn1cc(C(=O)Nc2ccsc2CC[Si](C)(C)C)c(C(F)F)n1 [drawing 92],100
3,Cn1cc(C(=O)Nc2ccsc2CC[Si](C)(C)C)c(C(F)(F)F)c1 [drawing 94],100
4,Cn1cc(C(=O)Nc2ccsc2CC[Si](C)(C)C)c(I)n1 [drawing 95],100
5,Cc1nn(C)c(F)c1C(=O)Nc1ccsc1CC[Si](C)(C)C [drawing 93],100
6,Cn1cc(C(=O)Nc2ccsc2CC[Si](C)(C)C)c(C(F)(F)F)n1 [drawing 91],100

# Tested on: Sphaerotheca fuliginea
# Assay: Sphaerotheca test (cucumber)/protective
# Type: in vivo
# Conditions: protective spray, application rate 100 g/ha, evaluation 7 days after inoculation
# Experimental: as §1
# as §3, with “Sphaerotheca fuliginea.” for “the apple mildew pathogen Podosphaera leucotricha.”
# Evaluation was carried out 7 days after the inoculation. 0% means an efficacy which corresponds to that of the control, whereas an efficacy of 100% means that no infection is observed.
row,Compound,Efficacy in % [%]
1,Cn1cc(C(=O)Nc2ccsc2CC[Si](C)(C)C)c(C(F)F)n1 [drawing 80],100
2,Cc1nn(C)c(F)c1C(=O)Nc1ccsc1CC[Si](C)(C)C [drawing 81],100
3,Cn1cc(C(=O)Nc2ccsc2CC[Si](C)(C)C)c(C(F)(F)F)c1 [drawing 82],100
4,Cc1nc(C(F)F)c(C(=O)Nc2ccsc2CC[Si](C)(C)C)s1 [drawing 78],100
5,Cn1cc(C(=O)Nc2ccsc2CC[Si](C)(C)C)c(C(F)(F)F)n1 [drawing 79],100
6,Cn1cc(C(=O)Nc2ccsc2CC[Si](C)(C)C)c(I)n1 [drawing 83],98

# Tested on: not listed separately
# Assay: log P determination by HPLC on reversed-phase column (EEC Directive 79/831 Annex V.A8)
# Type: physicochemical
# Conditions: reversed-phase C18 HPLC column, pH 2.3, C18, 43° C., 0.1% aqueous phosphoric acid/acetonitrile gradient
# Experimental: The given log P values were determined in accordance with EEC Directive 79/831 Annex V.A8 by HPLC (High Performance Liquid Chromatography) on a reversed-phase column (C 18). Temperature: 43° C. Mobile phases for the determination in the acidic range (pH 2.3): 0.1% aqueous phosphoric acid, acetonitrile; linear gradient from 10% acetonitrile to 90% acetonitrile. Calibration was carried out using unbranched alkan-2-ones (having 3 to 16 carbon atoms) with known logP values (determination of the logP values by the retention times using linear interpolation between two successive alkanones). The lambda max values were determined in the maxima of the chromatographic signals using the UV spectra from 200 nm to 400 nm.
row,Compound,chromatographic logP
1,"C[Si](C)(C)CCc1sccc1NC(=O)c1cccnc1Cl [Example 1, 2-chloro-N-{2-[2-(trimethylsilyl)ethyl]-3-thienyl}nicotinamide]",3.65
2,"C[Si](C)(C)CCc1sccc1N [Example (III-1), 2-(2-trimethylsilanylethyl)thiophen-3-ylamine]",1.78
